Here are results for one compound from article PMC9220805, “The 26S Proteasome Switches between ATP-Dependent and -Independent Mechanisms in Response to Substrate Ubiquitination” (Biomolecules, 2022).

The test system of this assay is T1, 26S proteasome (WT proteasome).
T1 construct: gene RPT1; native 26S holoenzyme (19S + 20S) purified by 3xFLAG-tagged Rpn11; with Ubiquitin carboxyl-terminal hydrolase RPN11
The assay can be described thus: SDS-PAGE fluorescence degradation assay of Cy5-labelled ubiquitinated substrate. It is filed as biochemical, Saccharomyces cerevisiae. Particulars: 1 mM ATPγS in place of ATP regeneration system; 100 nM proteasome, 20 nM substrate, 5 mM MgCl2, pH 7.5, 30 °C; nonhydrolyzable ATP analog.

As for `Nc1ncnc2c1ncn2[C@@H]1O[C@H](COP(=O)(O)OP(=O)(O)OP(O)(O)=S)[C@@H](O)[C@H]1O` [ATPγS], the “SDS-PAGE fluorescence degradation assay of Cy5-labelled ubiquitinated substrate” value was “ATPγS considerably slowed degradation of the ubiquitinated-Rpn4-containing substrate”.
